The source made the active and inactive calls. No cut-off for these calls is given here.
Columns and labels:
Keap1/Nrf2 = Keap1/Nrf2 (Homo sapiens, UniProt Q14145); test: Inhibition of Keap1-Nrf2 (unknown origin) interaction measured after 60 mins by Fluorescence polarization assay; format: protein assay
[1] = Cytotoxicity against mouse peritoneal macrophages assessed as reduction in cell viability measured after 24 hrs by CCK8 assay; format: cell-based, Peritoneal macrophage
Peritoneal macrophage [2] = test: Antiinflammatory activity against mouse peritoneal macrophages assessed as inhibition of LPS-stimulated ROS production at 10 uM incubated for 6 hrs by DCFH-DA staining based fluorescence analysis; format: functional, cell-based
Peritoneal macrophage [3] = test: Antiinflammatory activity against mouse peritoneal macrophages assessed as reduction in LPS-induced TNFalpha production at 10 uM measured after 24 hrs by ELISA; format: functional, cell-based
Peritoneal macrophage [4] = test: Antiinflammatory activity against mouse peritoneal macrophages assessed as inhibition of LPS-induced NO production at 10 uM measured after 24 hrs by Griess assay; format: functional, cell-based
[5] = target: T1, Kelch-like ECH-associated protein 1/Nuclear factor erythroid 2-related factor 2 (Mus musculus) (UniProt Q60795+Q9Z2X8); test: Inhibition of Keap1-Nrf2 interaction in mouse peritoneal macrophages assessed as increase in nuclear translocation of Nrf2 by measuring decrease in cytosolic Nrf2 level at 10 uM measured after 3 to 6 hrs by Western blot analysis; format: subcellular; details: Peritoneal macrophage, Cytosol, time 3-6 hrs
[6] = target: T1, Kelch-like ECH-associated protein 1/Nuclear factor erythroid 2-related factor 2 (Mus musculus); test: Inhibition of Keap1-Nrf2 interaction in mouse peritoneal macrophages assessed as upregulation of HO-1 protein expression at 10 uM by Western blot analysis; format: tissue-based; details: Peritoneal macrophage, time 1-6 hrs, TDE = time-dependent effect
[7] = target: T1, Kelch-like ECH-associated protein 1/Nuclear factor erythroid 2-related factor 2 (Mus musculus); test: Inhibition of Keap1-Nrf2 interaction in mouse peritoneal macrophages assessed as upregulation of NQO1 protein expression at 10 uM by Western blot analysis; format: tissue-based; details: Peritoneal macrophage, time 1-6 hrs, TDE = time-dependent effect
[8] = target: T1, Kelch-like ECH-associated protein 1/Nuclear factor erythroid 2-related factor 2 (Mus musculus); test: Inhibition of Keap1-Nrf2 interaction in mouse peritoneal macrophages assessed as increase in nuclear translocation of Nrf2 by measuring increase in nuclear Nrf2 level at 10 uM measured after 3 to 6 hrs by Western blot analysis; format: subcellular; details: Peritoneal macrophage, Nucleus, time 3-6 hrs
Mus musculus [9] = test: (§1) In vivo inhibition of Keap1-Nrf2 interaction in LPS-induced acute lung injury C57BL/6 mouse model assessed as increase in Nrf2 nuclear translocation in lungs by measuring increase in nuclear Nrf2 level treated intraperitoneally at 0.5 hrs before LPS stimulation and measured after 6 hrs by western blot analysis; format: functional, organism-based; details: dose 5-20 mg/kg, time 6.5 hrs
Mus musculus [10] = test: Anti-inflammatory activity against LPS-induced acute lung injury C57BL/6 mouse model assessed as reduction in LPS-induced TNF-alpha secretion in BALF at 5 to 20 mg/kg, ip treated 0.5 hrs before LPS stimulation and measured after 6 hrs by ELISA; format: functional, organism-based; details: dose 5-20 mg/kg, time 6.5 hrs
Mus musculus [11] = test: Anti-inflammatory activity against LPS-induced acute lung injury C57BL/6 mouse model assessed as reduction in LPS-induced IL-1 beta mRNA expression in lungs at 5 to 20 mg/kg, ip treated 0.5 hrs before LPS stimulation and measured after 6 hrs by RT-PCR analysis; format: functional, organism-based; details: dose 5-20 mg/kg, time 6.5 hrs
Mus musculus [12] = test: as §1, with “measuring decrease” for “measuring increase”, “in cytosolic” for “in nuclear”; format: functional, organism-based; details: dose 5-20 mg/kg, time 6.5 hrs
Mus musculus [13] = test: Anti-inflammatory activity against LPS-induced acute lung injury C57BL/6 mouse model assessed as reduction in LPS-induced IL-1 beta secretion in BALF at 5 to 20 mg/kg, ip treated 0.5 hrs before LPS stimulation and measured after 6 hrs by ELISA; format: functional, organism-based; details: dose 5-20 mg/kg, time 6.5 hrs
Mus musculus [14] = test: (§2) Antiinflammatory activity against LPS-induced acute lung injury C57BL/6 mouse model assessed as mild alveolar thickening with less bleeding points/congestion in lungs at 5 to 20 mg/kg, ip treated 0.5 hrs before LPS stimulation and measured after 6 hrs by hematoxylin and eosin staining based microscopic analysis; format: functional, organism-based; details: dose 5-20 mg/kg, time 6.5 hrs
Mus musculus [15] = test: as §2, with “intact” for “mild”, “structure” for “thickening”, “reduced inflammatory cells infiltration” for “less bleeding points/congestion”; format: functional, organism-based; details: dose 5-20 mg/kg, time 6.5 hrs
Mus musculus [16] = test: Anti-inflammatory activity against LPS-induced acute lung injury C57BL/6 mouse model assessed as reduction in LPS-induced TNF-alpha mRNA expression in lungs at 5 to 20 mg/kg, ip treated 0.5 hrs before LPS stimulation and measured after 6 hrs by RT-PCR analysis; format: functional, organism-based; details: dose 5-20 mg/kg, time 6.5 hrs
Mus musculus [17] = test: Anti-inflammatory activity against LPS-induced acute lung injury C57BL/6 mouse model assessed as reduction in LPS-induced IL-6 mRNA expression in lungs at 5 to 20 mg/kg, ip treated 0.5 hrs before LPS stimulation and measured after 6 hrs by RT-PCR analysis; format: functional, organism-based; details: dose 5-20 mg/kg, time 6.5 hrs

Keap1/Nrf2, sequence (Q16236 whole entry): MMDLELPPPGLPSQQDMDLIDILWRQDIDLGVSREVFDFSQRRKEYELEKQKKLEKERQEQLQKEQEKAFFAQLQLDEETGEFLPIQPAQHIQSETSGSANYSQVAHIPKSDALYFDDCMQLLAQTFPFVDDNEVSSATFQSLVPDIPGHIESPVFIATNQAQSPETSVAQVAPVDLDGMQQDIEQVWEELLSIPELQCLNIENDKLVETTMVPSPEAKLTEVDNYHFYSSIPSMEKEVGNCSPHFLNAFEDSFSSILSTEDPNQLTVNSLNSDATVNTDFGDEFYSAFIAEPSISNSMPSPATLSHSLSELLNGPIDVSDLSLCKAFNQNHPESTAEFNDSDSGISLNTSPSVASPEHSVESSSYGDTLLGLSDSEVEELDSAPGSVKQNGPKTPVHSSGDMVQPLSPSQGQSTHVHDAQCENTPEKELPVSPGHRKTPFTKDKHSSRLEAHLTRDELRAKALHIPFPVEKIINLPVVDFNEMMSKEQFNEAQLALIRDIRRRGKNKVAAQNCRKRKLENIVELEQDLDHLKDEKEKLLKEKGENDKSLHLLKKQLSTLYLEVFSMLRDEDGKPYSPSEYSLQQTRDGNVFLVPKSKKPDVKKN
Keap1/Nrf2, sequence (Q14145 whole entry): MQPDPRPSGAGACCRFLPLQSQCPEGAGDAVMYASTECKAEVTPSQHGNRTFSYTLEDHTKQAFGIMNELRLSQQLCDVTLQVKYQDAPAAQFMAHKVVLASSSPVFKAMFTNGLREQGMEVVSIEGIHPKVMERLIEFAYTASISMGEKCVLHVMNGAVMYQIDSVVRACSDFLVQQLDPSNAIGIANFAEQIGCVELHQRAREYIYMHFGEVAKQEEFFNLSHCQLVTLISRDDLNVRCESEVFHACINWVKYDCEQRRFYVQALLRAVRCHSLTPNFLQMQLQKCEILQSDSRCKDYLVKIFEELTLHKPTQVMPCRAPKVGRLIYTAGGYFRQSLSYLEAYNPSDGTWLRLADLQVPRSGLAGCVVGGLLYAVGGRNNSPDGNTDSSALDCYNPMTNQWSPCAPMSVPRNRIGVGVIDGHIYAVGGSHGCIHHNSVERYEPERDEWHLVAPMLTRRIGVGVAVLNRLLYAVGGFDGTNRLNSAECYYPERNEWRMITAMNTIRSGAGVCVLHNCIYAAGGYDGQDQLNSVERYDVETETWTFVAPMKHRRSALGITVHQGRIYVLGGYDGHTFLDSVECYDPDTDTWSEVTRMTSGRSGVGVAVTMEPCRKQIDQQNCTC
T1 sequence (Q60795 whole entry, looked up): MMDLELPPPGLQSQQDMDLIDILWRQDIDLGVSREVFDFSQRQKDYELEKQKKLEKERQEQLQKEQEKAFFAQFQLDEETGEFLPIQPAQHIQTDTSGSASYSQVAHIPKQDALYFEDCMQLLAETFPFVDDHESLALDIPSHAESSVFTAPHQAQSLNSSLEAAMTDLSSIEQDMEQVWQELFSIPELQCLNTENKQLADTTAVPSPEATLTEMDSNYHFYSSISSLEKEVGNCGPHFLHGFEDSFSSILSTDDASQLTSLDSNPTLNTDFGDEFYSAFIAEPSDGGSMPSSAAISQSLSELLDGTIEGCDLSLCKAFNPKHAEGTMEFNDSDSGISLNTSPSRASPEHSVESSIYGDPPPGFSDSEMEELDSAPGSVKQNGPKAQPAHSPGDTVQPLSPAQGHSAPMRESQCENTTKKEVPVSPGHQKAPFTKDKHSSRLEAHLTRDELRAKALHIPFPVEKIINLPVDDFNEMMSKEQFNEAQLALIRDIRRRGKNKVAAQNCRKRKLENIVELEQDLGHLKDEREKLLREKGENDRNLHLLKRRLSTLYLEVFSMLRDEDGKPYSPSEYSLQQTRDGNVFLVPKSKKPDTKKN
T1 sequence (Q9Z2X8 whole entry, looked up): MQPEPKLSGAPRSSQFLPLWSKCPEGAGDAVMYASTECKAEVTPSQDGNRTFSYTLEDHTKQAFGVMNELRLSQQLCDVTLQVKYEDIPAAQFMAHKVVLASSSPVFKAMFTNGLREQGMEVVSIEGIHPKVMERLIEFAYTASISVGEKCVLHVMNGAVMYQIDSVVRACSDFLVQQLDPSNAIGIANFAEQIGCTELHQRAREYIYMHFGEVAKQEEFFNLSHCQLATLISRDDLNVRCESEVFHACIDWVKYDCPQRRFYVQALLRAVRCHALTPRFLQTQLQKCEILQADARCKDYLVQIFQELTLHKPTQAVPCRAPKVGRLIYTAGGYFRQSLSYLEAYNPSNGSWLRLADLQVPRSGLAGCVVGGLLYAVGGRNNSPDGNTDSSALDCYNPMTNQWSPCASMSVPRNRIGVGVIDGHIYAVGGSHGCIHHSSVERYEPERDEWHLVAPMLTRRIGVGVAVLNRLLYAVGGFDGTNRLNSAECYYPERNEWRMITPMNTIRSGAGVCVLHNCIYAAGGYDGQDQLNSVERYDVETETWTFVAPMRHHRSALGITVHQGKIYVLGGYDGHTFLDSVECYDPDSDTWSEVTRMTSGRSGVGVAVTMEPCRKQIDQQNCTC

Structure (SMILES)	Kd (Keap1/Nrf2) [µM]	CC50 at 24 h [1] [µM]	further results
COc1ccc(S(=O)(=O)N(CC(N)=O)c2ccc(N(CC(N)=O)S(=O)(=O)c3ccc(SCCN=C=S)cc3)c3ccccc23)cc1	3.5	> 10	
COc1ccc(S(=O)(=O)N(CC(N)=O)c2ccc(N(CC(N)=O)S(=O)(=O)c3ccc(SCCCCCN=C=S)cc3)c3ccccc23)cc1	> 10	> 10	
COc1ccc(S(=O)(=O)N(CC(N)=O)c2ccc(N(CC(N)=O)S(=O)(=O)c3ccc([S+]([O-])CCOCCOCCOCCN=C=S)cc3)c3ccccc23)cc1 (centres undefined)	> 10	> 10	
COc1ccc(S(=O)(=O)N(CC(N)=O)c2ccc(N(CC(N)=O)S(=O)(=O)c3ccc(S(=O)(=O)CCCCCN=C=S)cc3)c3ccccc23)cc1	> 10	> 10	
COc1ccc(S(=O)(=O)N(CC(N)=O)c2ccc(N(CC(N)=O)S(=O)(=O)c3ccc([S+]([O-])CCCCCN=C=S)cc3)c3ccccc23)cc1 (centres undefined)	1.83	> 10	
COc1ccc(S(=O)(=O)N(CC(N)=O)c2ccc(N(CC(N)=O)S(=O)(=O)c3ccc(N=C=S)cc3)c3ccccc23)cc1	0.106	> 10	Activity (Peritoneal macrophage [2]): Active; Activity (Peritoneal macrophage [3]): Active; Activity (Peritoneal macrophage [4]): Active
COc1ccc(S(=O)(=O)N(CC(N)=O)c2ccc(N(CC(N)=O)S(=O)(=O)c3ccc(SCCCN=C=S)cc3)c3ccccc23)cc1	> 10	> 10	
COc1ccc(S(=O)(=O)N(CC(N)=O)c2ccc(N(CC(N)=O)S(=O)(=O)c3ccc(S(=O)(=O)CCN=C=S)cc3)c3ccccc23)cc1	0.658	> 10	Activity (Peritoneal macrophage [2]): Active; Activity (Peritoneal macrophage [3]): Active; Activity (Peritoneal macrophage [4]): Active
COc1ccc(S(=O)(=O)N(CC(N)=O)c2ccc(N(CC(N)=O)S(=O)(=O)c3ccc(S(=O)(=O)CCOCCOCCOCCN=C=S)cc3)c3ccccc23)cc1	> 10	> 10	
COc1ccc(S(=O)(=O)N(CC(N)=O)c2ccc(N(CC(N)=O)S(=O)(=O)c3ccc([S+]([O-])CCN=C=S)cc3)c3ccccc23)cc1 (centres undefined)	1.49	> 10	
COc1ccc(S(=O)(=O)N(CC(N)=O)c2ccc(N(CC(N)=O)S(=O)(=O)c3ccc(S(=O)(=O)CCOCCOCCN=C=S)cc3)c3ccccc23)cc1	1.22	> 10	
COc1ccc(S(=O)(=O)N(CC(N)=O)c2ccc(N(CC(N)=O)S(=O)(=O)c3ccc(SCCOCCOCCOCCN=C=S)cc3)c3ccccc23)cc1	> 10	> 10	
COc1ccc(S(=O)(=O)N(CC(N)=O)c2ccc(N(CC(N)=O)S(=O)(=O)c3ccc([S+]([O-])CCOCCOCCN=C=S)cc3)c3ccccc23)cc1 (centres undefined)	1.09	> 10	
COc1ccc(S(=O)(=O)N(CC(N)=O)c2ccc(N(CC(N)=O)S(=O)(=O)c3ccc([S+]([O-])CCCCN=C=S)cc3)c3ccccc23)cc1 (centres undefined)	1.27	> 10	
C[S+]([O-])CCCCN=C=S (centres undefined) [SULFORAPHANE]		> 10	Activity (Peritoneal macrophage [2]): Active; inhibition [5]: Active; Activity (Peritoneal macrophage [3]): Active; inhibition [6]: Tde; inhibition [7]: Tde; Activity (Peritoneal macrophage [4]): Active; inhibition [8]: Active
COc1ccc(S(=O)(=O)N(CC(N)=O)c2ccc(N(CC(N)=O)S(=O)(=O)c3ccc([S+]([O-])CCCN=C=S)cc3)c3ccccc23)cc1 (centres undefined)	0.455	> 10	inhibition (Mus musculus [9]): Dose-Dependent Effect; Activity (Mus musculus [10]): Active; Activity (Mus musculus [11]): Active; inhibition (Mus musculus [12]): Dose-Dependent Effect; Activity (Peritoneal macrophage [2]): Active; Activity (Mus musculus [13]): Active; inhibition [5]: Active; Activity (Peritoneal macrophage [3]): Active; inhibition [6]: Tde; inhibition [7]: Tde; Activity (Mus musculus [14]): Active; Activity (Mus musculus [15]): Active; Activity (Peritoneal macrophage [4]): Active; Activity (Mus musculus [16]): Active; Activity (Mus musculus [17]): Active; inhibition [8]: Active
COc1ccc(S(=O)(=O)N(CC(N)=O)c2ccc(N(CC(N)=O)S(=O)(=O)c3ccc([S+]([O-])CCOCCN=C=S)cc3)c3ccccc23)cc1 (centres undefined)	3.08	> 10	
COc1ccc(S(=O)(=O)N(CC(N)=O)c2ccc(N(CC(N)=O)S(=O)(=O)c3ccc(S(=O)(=O)CCCCN=C=S)cc3)c3ccccc23)cc1	> 10	> 10	
COc1ccc(S(=O)(=O)N(CC(N)=O)c2ccc(N(CC(N)=O)S(=O)(=O)c3ccc(S(=O)(=O)CCOCCN=C=S)cc3)c3ccccc23)cc1	2.3	> 10	
COc1ccc(S(=O)(=O)N(CC(N)=O)c2ccc(N(CC(N)=O)S(=O)(=O)c3ccc(SCCOCCOCCN=C=S)cc3)c3ccccc23)cc1	> 10	> 10	
COc1ccc(S(=O)(=O)N(CC(N)=O)c2ccc(N(CC(N)=O)S(=O)(=O)c3ccc(SCCOCCN=C=S)cc3)c3ccccc23)cc1	8.51	> 10	
COc1ccc(S(=O)(=O)N(CC(N)=O)c2ccc(N(CC(N)=O)S(=O)(=O)c3ccc(S(=O)(=O)CCCN=C=S)cc3)c3ccccc23)cc1	> 10	> 10	
COc1ccc(S(=O)(=O)N(CC(N)=O)c2ccc(N(CC(N)=O)S(=O)(=O)c3ccc(SCCCCN=C=S)cc3)c3ccccc23)cc1	> 10	> 10	

— ChEMBL document CHEMBL4823275, “Structure-based molecular hybridization design of Keap1-Nrf2 inhibitors as novel protective agents of acute lung injury” (Eur J Med Chem, 2021)
